Entries after “also recorded” stand apart in the source; their conditions may differ. Like-named read-outs stand apart in the source and are kept apart here.
Experiments:
MptpA = MptpA (Mycobacterium tuberculosis, UniProt P9WIA1); experiment: biochemical; details: pNPP assay, pH 6
SapM [1] = molecular target: T1, SapM (Mycobacterium tuberculosis, UniProt O53361); experiment: Microscale thermophoresis of SapM binding; details: for EC50: MST titration
T1 construct: made in house; host or cells: Escherichia coli C41 (DE3)
T1 sequence (O53361 44-299): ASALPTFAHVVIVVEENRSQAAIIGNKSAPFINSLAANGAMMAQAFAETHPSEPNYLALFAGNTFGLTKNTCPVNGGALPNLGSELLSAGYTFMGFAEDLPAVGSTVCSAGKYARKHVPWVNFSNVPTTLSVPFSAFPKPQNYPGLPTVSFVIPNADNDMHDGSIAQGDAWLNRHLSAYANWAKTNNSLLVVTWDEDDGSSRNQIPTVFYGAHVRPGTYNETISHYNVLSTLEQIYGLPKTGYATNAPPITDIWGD
Protocol: Microscale thermophoresis (MST) was used to study the direct binding interaction of SapM with three compounds 1, 2 and 13. SapM was labelled with NTA-647nm dye which attaches to the 6-histidine tag. 100 nM NTA-647 was incubated with 200 nM SapM for 1-hour at 4 °C and then centrifuged at 20,000 rcf for 20 minutes at 4 °C in 20 mM HEPES, 200 mM NaCl pH 7.0. 10 mM compound was diluted to 500 μM in the same buffer. Binding checks were carried out with labelled SapM (5 nM) with and without 250 nM compound with LED power of 20% and a medium MST power in a Monolith Pico instrument and using standard capillaries. Binding analysis was performed with a doubling serial dilution from 250 nM with 16 dilutions and a constant concentration of 5 nM labelled SapM.

VHR = VHR (Homo sapiens, UniProt P51452); experiment: hVHR inhibition, pNPP assay; assay type: biochemical
Sequence of VHR (P51452 whole entry): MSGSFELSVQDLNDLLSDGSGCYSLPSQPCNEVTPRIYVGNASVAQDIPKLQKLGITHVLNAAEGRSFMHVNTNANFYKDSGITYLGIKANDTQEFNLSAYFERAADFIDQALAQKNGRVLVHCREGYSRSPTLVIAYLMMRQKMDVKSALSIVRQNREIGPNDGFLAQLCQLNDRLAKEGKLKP

PTP1B = molecular target: T2, PTP1B (Homo sapiens, UniProt P18031); experiment: hPTP1B inhibition, pNPP assay; assay type: biochemical
T2 sequence (P18031 1-435): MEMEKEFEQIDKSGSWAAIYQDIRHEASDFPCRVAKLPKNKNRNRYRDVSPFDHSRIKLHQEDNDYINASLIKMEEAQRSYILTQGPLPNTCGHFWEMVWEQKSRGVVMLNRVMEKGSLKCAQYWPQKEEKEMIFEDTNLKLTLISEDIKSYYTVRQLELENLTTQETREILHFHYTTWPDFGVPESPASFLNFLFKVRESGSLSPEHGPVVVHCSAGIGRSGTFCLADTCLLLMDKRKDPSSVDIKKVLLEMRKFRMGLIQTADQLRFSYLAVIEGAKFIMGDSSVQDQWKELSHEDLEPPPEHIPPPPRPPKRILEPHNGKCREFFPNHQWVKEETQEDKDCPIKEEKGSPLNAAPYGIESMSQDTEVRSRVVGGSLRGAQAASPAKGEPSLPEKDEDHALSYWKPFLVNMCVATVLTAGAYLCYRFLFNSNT

SapM [2] = molecular target: T1, SapM; experiment: biochemical; assay type: biochemical; details: for IC50: pNPP assay, dose-response; for remaining activity at 100 µM: 0.5 h, read-out: %SA (percentage specific activity of SapM)
MptpB = MptpB (Mycobacterium tuberculosis, UniProt I6WXK4); experiment: biochemical; details: pNPP assay, pH 6
Sequence of MptpB (I6WXK4 whole entry, looked up): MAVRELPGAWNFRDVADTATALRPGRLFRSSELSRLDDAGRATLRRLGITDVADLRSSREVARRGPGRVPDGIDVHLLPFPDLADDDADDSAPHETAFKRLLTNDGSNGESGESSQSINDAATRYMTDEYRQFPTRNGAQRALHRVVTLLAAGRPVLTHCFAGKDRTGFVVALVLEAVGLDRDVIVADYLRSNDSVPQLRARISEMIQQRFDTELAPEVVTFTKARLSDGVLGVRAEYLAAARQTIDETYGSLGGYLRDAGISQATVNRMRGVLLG

SapM [3] = molecular target: T1, SapM; experiment: Type of inhibition of SapM, Lineweaver-Burk plots; assay type: biochemical
Excerpt: To determine the type of inhibition different inhibitor concentrations were selected to yield around 30% and 75% inhibition for each concentration of pNPP. This ensures sufficient signal to obtain accurate data while allowing a significant inhibition effect. Velocity (V) was plotted as a function of pNPP concentration and fit in a Lineweaver–Burk plot (double-reciprocal) using GraphPad Prism 8.41. All assays were done in 96-well microplates and performed in triplicate in at least two independent experiments.

M. bovis BCG ΔsapM = assay type: cell-based; details: 40 µM
Mtb H37Rv strain = experiment: Mycobacterium tuberculosis infection assay in THP-1 macrophages; assay type: cell-based; details: resting THP-1 macrophages; 1 µM and 40 µM; 24 h and 72 h post infection
M. bovis BCG wild-type = assay type: cell-based; details: Raw 264.7 macrophages; 40 µM; 72 h post-infection; vs DMSO
SapM [4] = molecular target: T1, SapM; design: method as in PMID 31312014; details: previously reported; cited from earlier work
AcpA [5] = molecular target: T3, AcpA (Francisella tularensis subsp. novicida, UniProt A0Q436); experiment: biochemical
T3 sequence (A0Q436 21-514 limits assumed): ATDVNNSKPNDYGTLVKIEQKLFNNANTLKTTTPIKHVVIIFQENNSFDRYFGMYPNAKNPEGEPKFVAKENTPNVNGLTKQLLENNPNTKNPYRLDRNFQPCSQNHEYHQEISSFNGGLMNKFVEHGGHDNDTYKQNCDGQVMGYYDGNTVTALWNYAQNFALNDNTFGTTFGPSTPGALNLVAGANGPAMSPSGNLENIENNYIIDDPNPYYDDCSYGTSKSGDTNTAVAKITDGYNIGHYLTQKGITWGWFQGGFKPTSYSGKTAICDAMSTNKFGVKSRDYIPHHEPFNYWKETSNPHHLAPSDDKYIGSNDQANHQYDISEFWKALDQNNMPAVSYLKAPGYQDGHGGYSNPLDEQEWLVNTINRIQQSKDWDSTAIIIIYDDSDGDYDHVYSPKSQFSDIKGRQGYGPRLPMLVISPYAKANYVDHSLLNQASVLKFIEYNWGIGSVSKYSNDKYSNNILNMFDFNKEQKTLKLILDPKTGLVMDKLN

AcpA [6] = molecular target: T3, AcpA; experiment: biochemical; details: 1 mM; read-out: inhibition of enzymatic activity of AcpA
[7] = MTT cytotoxicity assay, MH-S; details: mouse, MH-S cells (SV40-transformed alveolar macrophage cell line)
[8] = system: Francisella tularensis live vaccine strain (LVS); assay type: cell-based; details: MH-S macrophages; 40 μM; 24 h post infection
F. tularensis = assay type: cell-based, Francisella tularensis; details: 40 µM; 24 h
[9] = Compound precipitation in enzyme assays; assay type: physicochemical; details: AcpA Malachite Green assay
[10] = Bivalent fit EC50 (1), tighter binding mode
[11] = compounds at 100 µM, relative to pNPP DMSO control

Sequence of MptpA (P9WIA1 whole entry): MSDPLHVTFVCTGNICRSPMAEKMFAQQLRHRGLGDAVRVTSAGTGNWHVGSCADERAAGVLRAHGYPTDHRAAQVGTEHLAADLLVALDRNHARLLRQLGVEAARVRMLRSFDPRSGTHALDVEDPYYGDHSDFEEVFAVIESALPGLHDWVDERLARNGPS

For `N#CC(C#N)=C(N)/C(C#N)=C/c1cc(O)c(O)c(O)c1` [Compound 13, Tyrphostin AG 183], the IC50 (MptpA) was 16.7 ± 1 µM, the “binding to SapM by MST” value (SapM [1]) was “confirmed” and the EC50 (SapM [1]; [10]) was 0.59 µM. The IC50 (VHR; pNPP assay, pH 5.5, read-out: IC50 VHR) was > 100 µM, the IC50 (PTP1B; pNPP assay, pH 5.5, read-out: IC50 PTP1B) was > 100 µM and the “effect on SapM enzyme activity” value (SapM [2]; compounds at 100 µM) was “completely abolished enzyme activity; also recorded: abolished enzyme activity completely”. The “%SA (percentage specific activity of SapM)” value (SapM [2]; [11]) was 0%, the IC50 (SapM [2]) was 8.2 ± 1 µM and the IC50 (MptpB) was > 100 µM. For the same compound, the “mechanism of inhibition of SapM” value (SapM [3]) was “uncompetitive inhibitors”.
With `O=c1oc2c(cc1O)oc(=O)c1cc(O)c(O)c(O)c12` [Compound 2, Galloflavin] the “intracellular burden of ΔsapM” value (M. bovis BCG ΔsapM) was “did not further reduce the intracellular burden”, the IC50 (MptpA) was 55.2 ± 1.1 µM and the “Mtb intracellular burden vs DMSO control” value (Mtb H37Rv strain) was “significant (****p < 0.0001) reduction”. The “binding to SapM by MST” value (SapM [1]) was “confirmed”, the EC50 (SapM [1]; read-out: Single species dose response EC50) was 32 ± 16 µM and the “intracellular burden of wild-type M. bovis BCG” value (M. bovis BCG wild-type) was “reduced the intracellular burden”. For the same compound, the IC50 (VHR) was > 100 µM, the IC50 (PTP1B) was > 100 µM and the remaining activity at 100 µM (SapM [2]; [11]) was 0%. The “effect on SapM enzyme activity” value (SapM [2]; compounds at 100 µM) was “completely abolished the enzymatic activity; also recorded: inhibits SapM activity completely”, the IC50 (SapM [2]) was 9.3 ± 1.1 µM and the IC50 (MptpB) was > 100 µM. For the same compound, the “mechanism of inhibition of SapM” value (SapM [3]) was “uncompetitive inhibitors”.
For `O=C1O[C@H]([C@@H](O)CO)C(O)=C1OP(=O)(O)O` [Compound 2P-AC, 2-phospho-L-ascorbic acid], the IC50 (SapM [4]) is listed as > 200 µM and the IC50 (AcpA [5]) is listed as 116 ± 1.02 µM.
In the case of `N#CC(C#N)=C(N)/C(C#N)=C/c1cc(O)c(O)c(O)c1` [Compound 1, Tyrphostin 51], the inhibition at 1000 µM (AcpA [6]) is reported as ~30%, the viability at 24 h [7] is reported as > 70% and the “reduction of F. tularensis intracellular burden” value [8] is reported as 55%. For the same compound, the “intracellular burden of ΔsapM” value (M. bovis BCG ΔsapM) was “did not further reduce the intracellular burden”, the IC50 (MptpA) was 19.8 ± 1 µM and the “acellular growth of F. tularensis” value (F. tularensis) was “does not affect acellular growth”. For the same compound, the “Mtb intracellular burden vs DMSO control” value (Mtb H37Rv strain) was “significant (****p < 0.0001) reduction”, the “binding to SapM by MST” value (SapM [1]) was “confirmed” and the EC50 (SapM [1]; [10]) was 0.52 µM. For the same compound, the “intracellular burden of wild-type M. bovis BCG” value (M. bovis BCG wild-type) was “reduced the intracellular burden”, the remaining activity at 100 µM (SapM [2]; [11]) was 0% and the “effect on SapM enzyme activity” value (SapM [2]; compounds at 100 µM) was “completely abolished the enzymatic activity; also recorded: abolished enzyme activity completely”. The IC50 (SapM [2]) was 6.3 ± 1 µM, the “concentration at which compound precipitates” value [9] was ≥ 2000 µM and the IC50 (MptpB) was > 100 µM. The “mechanism of inhibition of SapM” value (SapM [3]) was “uncompetitive inhibitors”.

Reference: PMC8027839 (Scientific Reports, 2021)
